In brackets after ≈: the same amount, converted by molar mass.
Columns and labels:
[1] = Oral bioavailability in CD1 mouse at 10 mg/kg; assay type: ADME, organism-based; conditions: in vivo
[2] = Solubility of the compound in phosphate buffer at pH 6.5; assay type: physicochemical

Structure (SMILES) | bioavailability [1] [%] | solubility [2] [µg/mL]
CC1(C)C[C@H](O)C[C@](C)(CNc2cc(Cl)cc(S(N)(=O)=O)c2)C1 | 55 | 
CC1(C)C[C@H](O)C[C@](C)(CNc2ccc(Cl)c(S(N)(=O)=O)c2)C1 | 70 | 
CC1(C)C[C@H](O)C[C@](C)(CNc2cccc(S(N)(=O)=O)c2)C1 (relative stereo) | 75 | 141 (≈ 432 µM)

Source: ChEMBL document CHEMBL2010786, “Design and synthesis of benzenesulfonamide derivatives as potent anti-influenza hemagglutinin inhibitors” (ACS Med Chem Lett, 2011)
